Test results: patent US10259810B2, “N-sulfonylated pyrazolo[3,4-b]pyridin-6-carboxamides and method of use” (AbbVie S.à.r.l., priority 2015, dated 2019)

What was measured:
[1] = molecular target: T1, ΔF508-CFTR (Homo sapiens, UniProt P13569, DEL508-508); assay: CFTR cell surface levels using HRP-tagged ΔF508-CFTR expressing CFBE cells, in the presence of a co-corrector; format: cell-based; details: HRP-tagged ΔF508-CFTR CFBE cells, in the presence of 3 μM co-corrector; for EC50: read-out: EC50
T1 construct: host or cells: CFBE41o-, doxycycline-inducible
T1 sequence (P13569 with tags, fused parts or gaps DEL508-508): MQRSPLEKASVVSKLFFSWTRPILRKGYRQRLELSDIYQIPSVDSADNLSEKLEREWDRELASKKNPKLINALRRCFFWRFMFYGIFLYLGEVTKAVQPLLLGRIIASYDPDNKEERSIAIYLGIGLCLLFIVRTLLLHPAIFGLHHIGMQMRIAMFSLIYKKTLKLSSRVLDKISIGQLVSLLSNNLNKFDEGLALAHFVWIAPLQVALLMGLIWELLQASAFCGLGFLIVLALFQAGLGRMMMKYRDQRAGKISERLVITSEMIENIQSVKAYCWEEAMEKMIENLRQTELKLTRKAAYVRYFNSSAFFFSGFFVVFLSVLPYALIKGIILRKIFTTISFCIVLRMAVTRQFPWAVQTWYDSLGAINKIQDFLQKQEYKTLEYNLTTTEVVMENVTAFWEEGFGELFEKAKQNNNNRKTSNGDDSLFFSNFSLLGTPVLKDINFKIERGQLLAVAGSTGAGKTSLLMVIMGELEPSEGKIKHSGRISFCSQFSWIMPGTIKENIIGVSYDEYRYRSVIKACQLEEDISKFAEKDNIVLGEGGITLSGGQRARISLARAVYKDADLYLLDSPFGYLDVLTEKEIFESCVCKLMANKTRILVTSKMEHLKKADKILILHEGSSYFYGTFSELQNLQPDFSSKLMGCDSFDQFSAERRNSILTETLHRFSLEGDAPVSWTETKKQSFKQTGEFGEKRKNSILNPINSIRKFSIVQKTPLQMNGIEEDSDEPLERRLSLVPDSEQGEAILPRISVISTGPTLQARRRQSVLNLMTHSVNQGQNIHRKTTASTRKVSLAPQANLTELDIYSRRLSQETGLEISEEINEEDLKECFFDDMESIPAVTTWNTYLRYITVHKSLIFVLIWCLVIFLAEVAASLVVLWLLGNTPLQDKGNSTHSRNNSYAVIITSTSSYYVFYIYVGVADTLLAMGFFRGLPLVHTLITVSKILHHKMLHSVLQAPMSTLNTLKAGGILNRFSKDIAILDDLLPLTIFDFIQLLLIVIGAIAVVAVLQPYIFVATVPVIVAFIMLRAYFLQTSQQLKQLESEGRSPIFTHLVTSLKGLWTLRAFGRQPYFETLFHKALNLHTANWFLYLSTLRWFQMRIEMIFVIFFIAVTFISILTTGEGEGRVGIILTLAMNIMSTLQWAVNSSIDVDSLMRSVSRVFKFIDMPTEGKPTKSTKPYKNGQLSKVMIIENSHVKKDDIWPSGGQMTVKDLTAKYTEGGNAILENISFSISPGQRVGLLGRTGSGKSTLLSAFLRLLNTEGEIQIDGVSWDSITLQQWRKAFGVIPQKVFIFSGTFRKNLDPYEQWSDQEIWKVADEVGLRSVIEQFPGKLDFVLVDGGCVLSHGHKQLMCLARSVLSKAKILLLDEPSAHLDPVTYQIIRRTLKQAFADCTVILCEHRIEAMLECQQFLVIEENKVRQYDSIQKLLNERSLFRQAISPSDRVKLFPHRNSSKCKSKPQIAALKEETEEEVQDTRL
In short: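 Chemiluminescent read-out of surface HRP (15 min, dark) after PBS washes. Activity is normalized as 100×(sample−DMSO)/(3 μM co-corrector alone−DMSO).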

[2] = molecular target: T1, ΔF508-CFTR; assay: CFTR cell surface levels using HRP-tagged ΔF508-CFTR expressing CFBE cells, intrinsic corrector capacity; format: cell-based; parameters: % Activation: concentration or dose not given beside the values; details: HRP-tagged ΔF508-CFTR expressing CFBE41o- cells, compound alone (intrinsic corrector capacity), 20 hours at 33° C.; for EC50: read-out: EC50
In short: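 Surface ΔF508-CFTR was measured as HRP chemiluminescence from an extracellular-loop-4 tag, expressed as percent activity between DMSO and a […] corrector control.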

## O=C(NS(=O)(=O)N1CCC(F)CC1)c1cc(N2CCC(CN3CCCC3)CC2)c2c(C3CCC3)nn(-c3ccccc3)c2n1 [Compound 459, 3-cyclobutyl-N-(4-fluoropiperidine-1-sulfonyl)-1-phenyl-4-{4-[(pyrrolidin-1-yl)methyl]piperidin-1-yl}-1H-pyrazolo[3,4-b]pyridine-6-carboxamide]
[1]
  % Activation: 388.87%
  EC50: 0.0961 µM
[2]
  % Activation: 225.65%
  EC50: 0.149 µM

## CN1CCN(S(=O)(=O)NC(=O)c2cc(N3CCC(CN4CCCC4)CC3)c3c(C4CCC4)nn(-c4ccccc4)c3n2)CC1 [Compound 460, 3-cyclobutyl-N-(4-methylpiperazine-1-sulfonyl)-1-phenyl-4-{4-[(pyrrolidin-1-yl)methyl]piperidin-1-yl}-1H-pyrazolo[3,4-b]pyridine-6-carboxamide]
[1]
  % Activation: 306.75%
  EC50: 0.505 µM
[2]
  % Activation: 125.8%
  EC50: 0.596 µM

## CC1(S(=O)(=O)NC(=O)c2cc(N3CCC(CN4CCCC4)CC3)c3c(C4CCC4)nn(-c4ccccc4)c3n2)CC1 [Compound 461, 3-cyclobutyl-N-(1-methylcyclopropane-1-sulfonyl)-1-phenyl-4-{4-[(pyrrolidin-1-yl)methyl]piperidin-1-yl}-1H-pyrazolo[3,4-b]pyridine-6-carboxamide]
[1]
  % Activation: 364.1%
  EC50: 0.177 µM
[2]
  % Activation: 212.3%
  EC50: 0.209 µM

## O=C(NS(=O)(=O)C1CC1)c1cc(N2CCC(CN3CCCC3)CC2)c2c(C3CCC3)nn(-c3ccccc3)c2n1 [Compound 462, 3-cyclobutyl-N-(cyclopropanesulfonyl)-1-phenyl-4-{4-[(pyrrolidin-1-yl)methyl]piperidin-1-yl}-1H-pyrazolo[3,4-b]pyridine-6-carboxamide]
[1]
  % Activation: 495.1%
  EC50: 0.107 µM
[2]
  % Activation: 317.4%
  EC50: 0.776 µM

## CCS(=O)(=O)NC(=O)c1cc(N2CCC(CN3CCCC3)CC2)c2c(C3CCC3)nn(-c3ccccc3)c2n1 [Compound 463, 3-cyclobutyl-N-(ethanesulfonyl)-1-phenyl-4-{4-[(pyrrolidin-1-yl)methyl]piperidin-1-yl}-1H-pyrazolo[3,4-b]pyridine-6-carboxamide]
[1]
  % Activation: 490.6%
  EC50: 0.194 µM
[2]
  % Activation: 263.9%
  EC50: 0.419 µM

## COCCS(=O)(=O)NC(=O)c1cc(N2CCC(CN3CCCC3)CC2)c2c(C3CCC3)nn(-c3ccccc3)c2n1 [Compound 464, 3-cyclobutyl-N-(2-methoxyethanesulfonyl)-1-phenyl-4-{4-[(pyrrolidin-1-yl)methyl]piperidin-1-yl}-1H-pyrazolo[3,4-b]pyridine-6-carboxamide]
[1]
  % Activation: 423.3%
  EC50: 0.17 µM
[2]
  % Activation: 277.5%
  EC50: 0.306 µM

## CC(C)(C)S(=O)(=O)NC(=O)c1cc(N2CCC(CN3CCCC3)CC2)c2c(C3CCC3)nn(-c3ccccc3)c2n1 [Compound 465, 3-cyclobutyl-N-(2-methylpropane-2-sulfonyl)-1-phenyl-4-{4-[(pyrrolidin-1-yl)methyl]piperidin-1-yl}-1H-pyrazolo[3,4-b]pyridine-6-carboxamide]
[1]
  % Activation: 293.15%
  EC50: 0.36 µM
[2]
  % Activation: 131.6%
  EC50: 0.313 µM

## CCS(=O)(=O)NC(=O)c1cc(N2CCC(N3CCOCC3)CC2)c2c(C3CCC3)nn(-c3ccc(F)cc3)c2n1 [Compound 466, 3-cyclobutyl-N-(ethanesulfonyl)-1-(4-fluorophenyl)-4-[4-(morpholin-4-yl)piperidin-1-yl]-1H-pyrazolo[3,4-b]pyridine-6-carboxamide]
[1]
  % Activation: 522.47%
  EC50: 0.0641 µM
[2]
  % Activation: 318.7%
  EC50: 0.176 µM

## CN(C)S(=O)(=O)NC(=O)c1cc(-c2ccc(CN3CCOCC3)cc2)c2c(C3CCC3)nn(C3CCCCC3)c2n1 [Compound 475, 3-cyclobutyl-1-cyclohexyl-N-(dimethylsulfamoyl)-4-{4-[(morpholin-4-yl)methyl]phenyl}-1H-pyrazolo[3,4-b]pyridine-6-carboxamide]
[1]
  % Activation: 289.95%
  EC50: 0.112 µM
[2]
  % Activation: 140.1%
  EC50: 0.179 µM

## CN(C)S(=O)(=O)NC(=O)c1cc(-c2ccc(CCN3CCOCC3)cc2)c2c(C3CCC3)nn(C3CCCCC3)c2n1 [Compound 476, 3-cyclobutyl-1-cyclohexyl-N-(dimethylsulfamoyl)-4-{4-[2-(morpholin-4-yl)ethyl]phenyl}-1H-pyrazolo[3,4-b]pyridine-6-carboxamide]
[1]
  % Activation: 355.65%
  EC50: 0.151 µM
[2]
  % Activation: 134.2%
  EC50: 0.215 µM

## C#CCCS(=O)(=O)NC(=O)c1cc(N2CCC(N3CCOCC3)CC2)c2c(C3CCC3)nn(-c3ccc(F)cc3)c2n1 [Compound 477, N-(but-3-yne-1-sulfonyl)-3-cyclobutyl-1-(4-fluorophenyl)-4-[4-(morpholin-4-yl)piperidin-1-yl]-1H-pyrazolo[3,4-b]pyridine-6-carboxamide]
[1]
  % Activation: 536.7%
  EC50: 0.0347 µM
[2]
  % Activation: 341.4%
  EC50: 0.117 µM

## CCS(=O)(=O)NC(=O)c1cc(N2CCC(N3CCCCC3)CC2)c2c(C3CCC3)nn(-c3ccc(F)cc3)c2n1 [Compound 478, 4-([1,4'-bipiperidin]-1'-yl)-3-cyclobutyl-N-(ethanesulfonyl)-1-(4-fluorophenyl)-1H-pyrazolo[3,4-b]pyridine-6-carboxamide]
[1]
  % Activation: 476.7%
  EC50: 0.127 µM
[2]
  % Activation: 295.4%
  EC50: 2.64 µM

## CN(C)S(=O)(=O)NC(=O)c1cc(-c2ccc(CN3CCOCC3)cc2)c2c(OC3CCC3)nn(C3CCCCC3)c2n1 [Compound 481, 3-(cyclobutyloxy)-1-cyclohexyl-N-(dimethylsulfamoyl)-4-{4-[(morpholin-4-yl)methyl]phenyl}-1H-pyrazolo[3,4-b]pyridine-6-carboxamide]
[1]
  % Activation: 285.65%
  EC50: 0.154 µM
[2]
  % Activation: 114.2%
  EC50: 0.278 µM

## CC(C)N(C)S(=O)(=O)NC(=O)c1cc(N2CCC(N3CCOCC3)CC2)c2c(C3CCC3)nn(-c3ccc(F)cc3)c2n1 [Compound 482, 3-cyclobutyl-1-(4-fluorophenyl)-N-[methyl(propan-2-yl)sulfamoyl]-4-[4-(morpholin-4-yl)piperidin-1-yl]-1H-pyrazolo[3,4-b]pyridine-6-carboxamide]
[1]
  % Activation: 436.4%
  EC50: 0.0616 µM
[2]
  % Activation: 214.1%
  EC50: 0.0882 µM

## CCN(C)S(=O)(=O)NC(=O)c1cc(N2CCC(N3CCOCC3)CC2)c2c(C3CCC3)nn(-c3ccc(F)cc3)c2n1 [Compound 483, 3-cyclobutyl-N-[ethyl(methyl)sulfamoyl]-1-(4-fluorophenyl)-4-[4-(morpholin-4-yl)piperidin-1-yl]-1H-pyrazolo[3,4-b]pyridine-6-carboxamide]
[1]
  % Activation: 438.2%
  EC50: 0.0561 µM
[2]
  % Activation: 212.7%
  EC50: 0.0849 µM

## O=C(NS(=O)(=O)N1CCCC1)c1cc(N2CCC(N3CCOCC3)CC2)c2c(C3CCC3)nn(-c3ccc(F)cc3)c2n1 [Compound 485, 3-cyclobutyl-1-(4-fluorophenyl)-4-[4-(morpholin-4-yl)piperidin-1-yl]-N-(pyrrolidine-1-sulfonyl)-1H-pyrazolo[3,4-b]pyridine-6-carboxamide]
[1]
  % Activation: 399.1%
  EC50: 0.0902 µM
[2]
  % Activation: 218.55%
  EC50: 0.155 µM

## O=C(NS(=O)(=O)CC(F)(F)F)c1cc(N2CCC(N3CCOCC3)CC2)c2c(C3CCC3)nn(-c3ccc(F)cc3)c2n1 [Compound 486, 3-cyclobutyl-1-(4-fluorophenyl)-4-[4-(morpholin-4-yl)piperidin-1-yl]-N-(2,2,2-trifluoroethanesulfonyl)-1H-pyrazolo[3,4-b]pyridine-6-carboxamide]
[1]
  % Activation: 569%
  EC50: 0.181 µM
[2]
  % Activation: 332.5%
  EC50: 0.467 µM

## COCCS(=O)(=O)NC(=O)c1cc(N2CCC(N3CCCCC3)CC2)c2c(C3CCC3)nn(-c3ccc(F)cc3)c2n1 [Compound 488, 4-([1,4'-bipiperidin]-1'-yl)-3-cyclobutyl-1-(4-fluorophenyl)-N-(2-methoxyethanesulfonyl)-1H-pyrazolo[3,4-b]pyridine-6-carboxamide]
[1]
  % Activation: 488.15%
  EC50: 0.683 µM
[2]
  % Activation: 246.55%
  EC50: 0.655 µM

## CC(C)c1nn(-c2ccnc(N3CCOCC3)c2)c2nc(C(=O)NS(=O)(=O)N(C)C)cc(OCC3CCOCC3)c12 [Compound 489, N-(dimethylsulfamoyl)-1-[2-(morpholin-4-yl)pyridin-4-yl]-4-[(oxan-4-yl)methoxy]-3-(propan-2-yl)-1H-pyrazolo[3,4-b]pyridine-6-carboxamide]
[1]
  % Activation: 280%
  EC50: 0.241 µM
[2]
  % Activation: 99.6%
  EC50: 0.141 µM

## CS(=O)(=O)NC(=O)c1cc(N2CCC(N3CCOCC3)CC2)c2c(C3CCC3)nn(-c3ccnc(C4CCOCC4)c3)c2n1 [Compound 490, 3-cyclobutyl-N-(methanesulfonyl)-4-[4-(morpholin-4-yl)piperidin-1-yl]-1-[2-(oxan-4-yl)pyridin-4-yl]-1H-pyrazolo[3,4-b]pyridine-6-carboxamide]
[1]
  % Activation: 303.9%
  EC50: 0.693 µM
[2]
  % Activation: 139.7%
  EC50: 1.55 µM
